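Interpolation was linear, between the two tested concentrations surrounding the appropriate level; five concentrations were tested over 48 hours in 96-well plates. GI50: concentration for 50% inhibition of growth. TGI: total growth inhibition.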
How the values were obtained:
Assay in all cases: growth of human tumour cells (NCI), 48 h
[1] = tested on: MOLT-4 leukemia
[2] = tested on: IGROV1 ovarian
[3] = tested on: RXF 393 renal
[4] = tested on: UACC-62 melanoma
[5] = tested on: HCC-2998 colon
[6] = tested on: U251 CNS
[7] = tested on: SF-268 CNS
[8] = tested on: PC-3 prostate
[9] = tested on: MDA-MB-231 breast
[10] = tested on: MDA-MB-435

SMILES | TGI [1] [µM] | TGI [2] [µM] | TGI [3] [µM] | TGI [4] [µM] | TGI [5] [µM] | TGI [6] [µM] | TGI [7] [µM] | GI50 [2] [µM] | GI50 [7] [µM] | GI50 [8] [µM] | TGI [8] [µM] | GI50 [9] [µM] | TGI [9] [µM] | GI50 [4] [µM] | GI50 [5] [µM] | GI50 [6] [µM] | TGI [10] [µM] | GI50 [1] [µM] | GI50 [10] [µM] | GI50 [3] [µM]
CN(C)CCNc1nc(-c2cccs2)cc(-c2cccs2)n1 | 13.4 | 69.2 | 28.6 | 37.4 | 25.3 | 24.4 | – | – | – | – | – | – | – | – | – | – | – | – | – | –
Nc1ccc(C(=O)N/C(=C\c2cccc([N+](=O)[O-])c2)c2nc3c4c(ccc3[nH]2)C(=O)c2ccccc2C4=O)cc1 | > 100 | > 100 | 57.7 | > 100 | > 100 | > 100 | > 100 | – | – | – | – | – | – | – | – | – | – | – | – | –
C#CCN(C)C(=O)N(CC#C)N=O | > 100 | > 100 | > 100 | > 100 | – | > 100 | > 100 | – | – | – | – | – | – | – | – | – | – | – | – | –
O=C1c2ccn(CCCCN3CCC(O)CC3)c2C(=O)c2c1c(O)c1ccccc1c2O | – | > 100 | – | 5.36 | > 59.5 | 43.4 | > 74.3 | 2.53 | 17.8 | 1.35 | 3.16 | 13.3 | 38.3 | 2.13 | 20.6 | 15.4 | – | – | – | –
COc1ccc2c(c1)OCCC1=C2SCC2(C)CCN=C12 (stereo unspecified) | > 100 | > 100 | > 100 | > 100 | – | > 100 | > 100 | – | – | – | – | – | – | – | – | – | – | – | – | –
Cc1cc(O)c(C(c2ccncc2)c2c(O)cc(C)[nH]c2=O)c(=O)[nH]1 | > 100 | > 100 | > 100 | > 100 | – | > 100 | > 100 | – | – | – | > 100 | – | > 100 | – | – | – | > 100 | – | – | –
COc1ccc2nc3cccc(C(=O)NCCN(C)C)c3nc2c1 | 1.19 | > 48.2 | 3.21 | – | 6.16 | 11.3 | – | – | – | – | – | – | – | – | – | – | – | – | – | –
Cc1cc(O)cc2c1c(=O)c1ccccc1n2C | > 100 | > 100 | > 100 | > 100 | – | > 100 | 84.4 | – | – | – | > 100 | – | > 100 | – | – | – | > 100 | – | – | –
COc1ccc(C(=O)O/N=C2/CCC/C2=C\c2ccccc2)cc1 | > 100 | > 100 | > 100 | > 100 | > 100 | > 100 | > 100 | – | – | – | – | – | – | – | – | – | – | – | – | –
Nc1c(-c2nc3ccccc3[nH]2)sc(=S)n1-c1ccc(Cl)cc1 | > 100 | 73.2 | 41.3 | 48.4 | 48.8 | 53.9 | 54.9 | – | – | – | – | – | – | – | – | – | – | – | – | –
Cn1cc(NC(=O)c2cc(NC(=O)CCCCCCC(=O)Nc3cc(C(=O)Nc4cc(C(=O)NCCC(=N)N)n(C)c4)n(C)c3)cn2C)cc1C(=O)NCCC(=N)N | – | 12.8 | 31.4 | 20.8 | 23.2 | 68.8 | > 100 | – | – | – | – | – | – | – | – | – | – | – | – | –
CO[C@H](C(=O)O)[C@@H]1Cc2cc3cc(OC4CC(OC5CC(O)C(O)C(C)O5)C(O)C(C)O4)c(C)c(O)c3c(O)c2C(=O)[C@H]1OC1CC(OC2CC(OC3CC(C)(O)C(O)C(C)O3)C(O)C(C)O2)C(O)C(C)O1 (stereo partly specified) | 6.41 | > 32.5 | 0.436 | 0.496 | – | > 32.5 | > 32.5 | 0.231 | 0.283 | 0.348 | > 32.5 | 0.553 | > 32.5 | 0.108 | – | 0.212 | 1.61 | 0.272 | 0.309 | 0.101
NCP(=O)(O)OCC(=O)O | > 100 | > 100 | > 100 | > 100 | – | > 100 | > 100 | – | – | – | – | – | – | – | – | – | – | – | – | –
Nc1nc(N)c(-c2ccccc2)c(CCC(=O)Nc2ccc(Cl)cc2)n1 | > 100 | > 100 | – | > 100 | > 100 | > 100 | > 100 | – | – | – | – | – | – | – | – | – | – | – | – | –
C=CCCC(=O)N1C=CC(=O)[C@H](O)[C@@H]1/C=C/c1ccccc1 | > 32.5 | > 32.5 | > 32.5 | 15.6 | > 32.5 | > 32.5 | > 32.5 | 9.4 | 7.03 | – | – | 18.6 | > 32.5 | 6.27 | 11.6 | 7.44 | > 32.5 | 15.6 | 10.7 | 29.9
CCOC(=O)/N=c1/nc(N(C)C)ss1 | > 100 | > 100 | > 100 | > 100 | > 100 | > 100 | > 100 | – | – | – | – | – | – | – | – | – | – | – | – | –
Cc1ccc(S(=O)OC23CC4CC(CC(C4)C2)C3)cc1 (stereo unspecified) | > 100 | 85.7 | > 100 | > 100 | > 100 | > 100 | > 100 | – | – | – | – | – | – | – | – | – | – | – | – | –

SMILES | TGI [1] [µM] | TGI [2] [µM] | TGI [3] [µM] | TGI [4] [µM] | TGI [5] [µM] | TGI [6] [µM] | TGI [7] [µM] | GI50 [2] [µM] | GI50 [7] [µM] | GI50 [8] [µM] | TGI [8] [µM] | GI50 [9] [µM] | TGI [9] [µM] | GI50 [4] [µM] | GI50 [5] [µM] | GI50 [6] [µM] | TGI [10] [µM] | GI50 [1] [µM] | GI50 [10] [µM] | GI50 [3] [µM]
C[n+]1c(N)n(C(=O)OCc2ccccc2)c(=O)c2c1ncn2C(=O)OCc1ccccc1 | > 100 | > 100 | – | > 100 | > 100 | > 100 | > 100 | – | – | – | – | – | – | – | – | – | – | – | – | –
N#C/C(=C\c1ccccc1Br)C(=O)c1ccccc1 | 52.8 | – | > 100 | 87.5 | > 100 | > 71.4 | > 85.4 | – | – | – | – | – | – | – | – | – | – | – | – | –
Cn1ccnc1C[N-]Cc1nccn1C.O=[N+]([O-])[O-].O=[N+]([O-])[O-].[Cu+2] | > 100 | > 100 | > 100 | > 100 | > 100 | > 100 | > 100 | > 100 | > 100 | – | – | – | – | 25.8 | > 100 | > 100 | – | > 100 | – | > 100
CCOC(=O)/C(C#N)=C/Nc1ccc(-c2nc3ccccc3[nH]2)cc1 | > 100 | > 100 | > 100 | 62.4 | – | 65.9 | 47.4 | 22.7 | 19.2 | 29.8 | > 100 | 18.1 | 45.1 | 18.7 | – | 23.2 | > 100 | 35.1 | 33.8 | 76.7
C1C[OH+]CC[OH+]CC[OH+]CC[OH+]CC[OH+]CC[OH+]1.[Cl-].[Nb+5] | > 100 | > 100 | > 100 | > 100 | > 100 | > 100 | > 100 | > 100 | > 100 | – | – | – | – | > 100 | > 100 | > 100 | – | > 100 | – | 85.3
CC(C)(C)OC(=O)N1N=NC2C3OC(CC3=O)C21 (stereo unspecified) | > 100 | > 100 | – | > 100 | > 100 | > 100 | > 100 | – | – | – | – | – | – | – | – | – | – | – | – | –
C#Cc1cc2c(N)c(C(=O)c3cc(OC)c(OC)c(OC)c3)[nH]c2cc1OC | 95.2 | 74.9 | – | > 100 | > 100 | > 100 | > 100 | 2.05 | 14.1 | 0.45 | > 100 | 5.13 | > 100 | 2.77 | 42.5 | 0.691 | – | 0.903 | – | –
C[N+](C)(C)CC1CCCC/C1=N\O (stereo unspecified) | > 100 | > 100 | > 100 | > 100 | > 100 | > 100 | > 100 | – | – | – | – | – | – | – | – | – | – | – | – | –
COc1cc2c(cc1OC)-c1ncc3cc4c(cc3c1C2)OCO4 | 20.4 | 59.6 | > 100 | > 100 | – | > 100 | – | 25 | – | > 100 | > 100 | > 100 | > 100 | > 100 | – | 41.4 | > 100 | 4.14 | 63.4 | 50.2
NS(=O)(=O)c1ccc(NC(=O)COC(=O)c2cccc3c(=O)c4ccccc4[nH]c23)cc1 | > 47.2 | 61.5 | 42.3 | 34.7 | > 100 | 28.1 | 36.9 | – | – | – | – | – | – | – | – | – | – | – | – | –
O=C(/C(=C/c1ccccc1)c1ccccc1)N1c2ccccc2CC1c1c[nH]c2ccccc12 (stereo unspecified) | 49.7 | > 100 | > 100 | > 100 | > 100 | > 100 | – | – | – | – | – | – | – | – | – | – | – | – | – | –
CCOC(=O)NC(=O)c1c[nH]c(=O)[nH]c1=O | > 100 | > 100 | – | > 100 | > 100 | > 100 | – | – | – | – | – | – | – | – | – | – | – | – | – | –
CC1=C(C(=O)Nc2ccccc2)C(c2ccc(C(C)C)cc2)C(C(=O)Nc2ccccc2)=C(C)N1 | 57.5 | > 100 | 27.6 | 35 | 20.9 | 45.1 | > 100 | – | – | – | – | – | – | – | – | – | – | – | – | –
COC(=O)Cc1nc2ccccc2o1 | > 100 | > 100 | > 100 | 49.3 | > 100 | > 100 | > 100 | – | – | – | – | – | – | – | – | – | – | – | – | –
CC(=O)CC(=O)/C=C/c1cccs1 | > 100 | > 100 | – | > 100 | – | > 100 | > 100 | – | – | – | – | – | – | – | – | – | – | – | – | –
COC(=O)C1CC(C(=O)OC)c2nc3cc(C)c(C)cc3nc21 (stereo unspecified) | > 100 | > 100 | – | > 100 | > 100 | > 100 | > 100 | – | – | – | – | – | – | – | – | – | – | – | – | –
OCC(O)C(OC1OC(CO)C(O)C(O)C1O)c1nn(-c2ccccc2)c2nc3cc(Cl)ccc3nc12 (stereo unspecified) | > 100 | – | > 100 | > 100 | > 100 | > 100 | > 100 | – | – | – | – | – | – | – | – | – | – | – | – | –
